Data published in ChEMBL document CHEMBL1914337, “Synthesis and biological evaluation of 2-indolinone derivatives as potential antitumor agents” (Eur J Med Chem, 2011).
pIC50: −log10 of the molar value. The source made the active and inactive calls. No cut-off for these calls is given here.

Experiments:
[1] = Cytotoxicity against human QSG7701 cells after 48 hrs by MTT assay; assay type: cell-based; conditions: QSG7701, 48 h
HepG2 = test: cells; conditions: Homo sapiens, HepG2, 48 h
Description: Cytotoxicity against human HepG2 cells after 48 hrs by MTT assay

K562 = test: cells; conditions: Homo sapiens, K562, 48 h
Description: Cytotoxicity against human K562 cells after 48 hrs by MTT assay

A549 = test: cells; conditions: Homo sapiens, A549, 48 h
Description: Cytotoxicity against human A549 cells after 48 hrs by MTT assay

PC-3 = test: Cytotoxicity against human PC3 cells after 48 hrs by MTT assay; assay type: functional, cell-based; conditions: PC-3, 48 h
HCT-116 [2] = test: cells; conditions: Homo sapiens, HCT-116, 48 h
Description: Cytotoxicity against human HCT116 cells after 48 hrs by MTT assay

HL-60 = test: cells; conditions: Homo sapiens, HL-60, 48 h
Description: Cytotoxicity against human HL60 cells after 48 hrs by MTT assay

[3] = target: T1, Vascular endothelial growth factor receptor 2 (Homo sapiens, UniProt P35968); test: Inhibition of human VEGFR2 preincubated for 10 mins before ATP addition measured after 45 mins
T1 sequence (P35968 whole entry): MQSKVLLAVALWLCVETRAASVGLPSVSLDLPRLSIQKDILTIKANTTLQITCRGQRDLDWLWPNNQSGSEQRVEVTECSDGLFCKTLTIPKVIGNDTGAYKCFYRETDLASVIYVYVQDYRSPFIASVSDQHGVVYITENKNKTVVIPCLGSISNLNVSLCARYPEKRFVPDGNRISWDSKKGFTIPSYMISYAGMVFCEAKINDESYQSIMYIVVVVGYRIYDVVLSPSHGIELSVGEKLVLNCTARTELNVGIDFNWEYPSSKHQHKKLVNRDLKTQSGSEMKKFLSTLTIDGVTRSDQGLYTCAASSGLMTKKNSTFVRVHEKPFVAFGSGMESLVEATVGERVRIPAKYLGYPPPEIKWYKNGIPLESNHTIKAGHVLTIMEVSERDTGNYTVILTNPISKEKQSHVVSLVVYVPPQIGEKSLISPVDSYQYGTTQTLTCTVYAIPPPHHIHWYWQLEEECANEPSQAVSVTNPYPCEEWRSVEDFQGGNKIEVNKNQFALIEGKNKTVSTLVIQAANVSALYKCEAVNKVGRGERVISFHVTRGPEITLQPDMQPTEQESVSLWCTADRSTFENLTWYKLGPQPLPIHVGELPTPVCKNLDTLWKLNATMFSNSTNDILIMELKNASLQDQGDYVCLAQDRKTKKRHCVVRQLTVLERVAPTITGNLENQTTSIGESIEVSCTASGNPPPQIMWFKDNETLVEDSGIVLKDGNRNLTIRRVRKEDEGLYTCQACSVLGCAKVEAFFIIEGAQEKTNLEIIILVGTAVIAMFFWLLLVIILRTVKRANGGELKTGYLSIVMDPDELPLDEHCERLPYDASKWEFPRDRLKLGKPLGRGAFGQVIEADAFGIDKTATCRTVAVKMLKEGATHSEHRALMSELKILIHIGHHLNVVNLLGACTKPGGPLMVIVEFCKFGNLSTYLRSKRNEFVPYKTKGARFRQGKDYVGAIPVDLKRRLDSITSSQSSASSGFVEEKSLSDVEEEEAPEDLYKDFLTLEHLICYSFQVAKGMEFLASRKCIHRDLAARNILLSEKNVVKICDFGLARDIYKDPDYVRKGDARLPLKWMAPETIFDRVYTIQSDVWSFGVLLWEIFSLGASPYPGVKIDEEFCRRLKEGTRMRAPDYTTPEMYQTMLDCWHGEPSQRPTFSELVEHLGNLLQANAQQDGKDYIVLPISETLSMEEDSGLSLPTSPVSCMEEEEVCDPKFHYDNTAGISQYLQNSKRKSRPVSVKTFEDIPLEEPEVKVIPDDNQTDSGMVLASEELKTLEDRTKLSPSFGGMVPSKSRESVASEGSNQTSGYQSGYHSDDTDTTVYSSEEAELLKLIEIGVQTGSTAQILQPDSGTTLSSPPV

[4] = target: T1, Vascular endothelial growth factor receptor 2; test: Inhibition of VEGF-induced VEGFR2 phosphorylation in human HCT116 cells at 0.2 to 20 uM treated 30 mins before VEGF challenge measured after 2 hrs by immuno blot analysis; assay type: cell-based; conditions: HCT-116
HCT-116 [5] = test: Cell cycle arrest in human HCT116 cells assessed as accumulation at G1 phase at 2 uM after 48 hrs using propidium iodide by flow cytometry (reference value: 36.8%); assay type: functional
HCT-116 [6] = test: Cell cycle arrest in human HCT116 cells assessed as accumulation at G1 phase at 0.5 uM after 48 hrs using propidium iodide by flow cytometry (reference value: 36.8%); assay type: functional
HCT-116 [7] = test: Induction of apoptosis in human HCT116 cells at 2 uM after 48 hrs using annexin V/propidium iodide staining by flow cytometry (reference value: 4.17%); assay type: functional
HCT-116 [8] = test: Cell cycle arrest in human HCT116 cells assessed as accumulation at S phase at 8 uM after 48 hrs using propidium iodide by flow cytometry (reference value: 46.43%); assay type: functional
HCT-116 [9] = test: Cell cycle arrest in human HCT116 cells assessed as accumulation at S phase at 0.5 uM after 48 hrs using propidium iodide by flow cytometry (reference value: 46.43%); assay type: functional
HCT-116 [10] = test: Induction of apoptosis in human HCT116 cells assessed as increase in late apoptotic cells after 48 hrs using annexin V/propidium iodide staining by flow cytometry; assay type: functional, cell-based
HCT-116 [11] = test: Cell cycle arrest in human HCT116 cells assessed as accumulation at G1 phase after 48 hrs using propidium iodide by flow cytometry; assay type: functional, cell-based
HCT-116 [12] = test: Cell cycle arrest in human HCT116 cells assessed as accumulation at G2 phase at 2 uM after 48 hrs using propidium iodide by flow cytometry (reference value: 16.77%); assay type: functional
HCT-116 [13] = test: Induction of apoptosis in human HCT116 cells at 0.5 uM after 48 hrs using annexin V/propidium iodide staining by flow cytometry (reference value: 4.17%); assay type: functional
HCT-116 [14] = test: Cell cycle arrest in human HCT116 cells assessed as accumulation at G1 phase at 8 uM after 48 hrs using propidium iodide by flow cytometry (reference value: 36.8%); assay type: functional
HCT-116 [15] = test: Cell cycle arrest in human HCT116 cells assessed as accumulation at G2 phase at 0.5 uM after 48 hrs using propidium iodide by flow cytometry (reference value: 16.77%); assay type: functional
HCT-116 [16] = test: Induction of apoptosis in human HCT116 cells at 8 uM after 48 hrs using annexin V/propidium iodide staining by flow cytometry (reference value: 4.17%); assay type: functional
HCT-116 [17] = test: Cell cycle arrest in human HCT116 cells assessed as accumulation at S phase at 2 uM after 48 hrs using propidium iodide by flow cytometry (reference value: 46.43%); assay type: functional
HCT-116 [18] = test: Cell cycle arrest in human HCT116 cells assessed as accumulation at G2 phase at 8 uM after 48 hrs using propidium iodide by flow cytometry (reference value: 16.77%); assay type: functional

Row | SMILES | pIC50 [1] | pIC50 (HepG2) | pIC50 (K562) | pIC50 (A549) | pIC50 (PC-3) | pIC50 (HCT-116 [2]) | pIC50 (HL-60) | also measured
1 | O=C1Nc2ncccc2/C1=C/c1c[nH]c2cc(F)ccc12 | < 4.30 | 4.81 | < 4.30 | 4.51 | < 4.30 | 4.65 | 4.47 | 
2 | CN(C)CCNC(=O)c1ccc(/C=C2\C(=O)Nc3ncccc32)[nH]c1=O | < 4.30 | 4.56 | 4.67 | 4.86 | 4.59 | 5.37 | 4.46 | 
3 | Cc1[nH]c(/C=C2\C(=O)Nc3ncccc32)c(C)c1C(=O)N1CCN(C)CC1 | < 4.30 | 4.43 | < 4.30 | 4.32 | < 4.30 | 4.46 | 4.40 | 
4 | CCN(CC)CCNC(=O)c1c(C)[nH]c(/C=C2\C(=O)Nc3ccc(F)cc32)c1C [SUNITINIB] | < 4.30 | 4.81 | 4.66 | 4.73 | 4.60 | 5.21 | 4.81 | 
5 | Cc1[nH]c(/C=C2\C(=O)Nc3ncccc32)c(C)c1C(=O)NCCN1CCOCC1 | < 4.30 | < 4.30 | < 4.30 | 4.53 | < 4.30 | 4.59 | 4.56 | 
6 | Cc1[nH]c(/C=C2\C(=O)Nc3ncccc32)c(C)c1C(=O)NCCN1CCCCC1 | < 4.30 | 4.41 | 4.74 | 4.60 | 4.59 | 4.74 | 4.52 | 
7 | Cc1[nH]c(/C=C2\C(=O)Nc3ccncc32)c(C)c1C(=O)N1CCN(CCO)CC1 | < 4.30 | < 4.30 | < 4.30 | < 4.30 | < 4.30 | < 4.30 | < 4.30 | 
8 | O=C1Nc2ncccc2/C1=C/c1c[nH]c2ccc(F)cc12 | < 4.30 | < 4.30 | 4.52 | < 4.30 | < 4.30 | 4.75 | 4.32 | 
9 | CCc1cccc2c(C=C3C(=O)Nc4cccnc43)c[nH]c12 (mixture of isomers) | 4.35 | < 4.30 | < 4.30 | 4.49 | < 4.30 | 4.65 | 4.47 | 
10 | Cc1[nH]c(/C=C2\C(=O)Nc3ncccc32)c(C)c1C(=O)NCCN(C)C | < 4.30 | 4.74 | 4.70 | 4.68 | 4.31 | 5.04 | 4.31 | 
11 | O=C1Nc2ccc(F)cc2/C1=C/c1c[nH]c2cc(F)ccc12 | < 4.30 | < 4.30 | < 4.30 | < 4.30 | < 4.30 | 4.55 | 4.37 | 
12 | Cc1[nH]c(/C=C2\C(=O)Nc3ccncc32)c(C)c1C(=O)NCCN(C)C | < 4.30 | 5.07 | 4.80 | 4.90 | < 4.30 | 5.04 | 4.46 | pIC50 [3]: 7.22; inhibition [4]: Active
13 | O=C1Nc2ccc(F)cc2/C1=C/c1c[nH]c2ccc(F)cc12 | < 4.30 | < 4.30 | < 4.30 | < 4.30 | < 4.30 | 4.38 | < 4.30 | 
14 | CCN(CC)CCNC(=O)c1c(C)[nH]c(/C=C2\C(=O)Nc3ccncc32)c1C | < 4.30 | 4.79 | 4.83 | 4.86 | < 4.30 | 4.96 | 4.46 | 
15 | CCc1cccc2c(/C=C3\C(=O)Nc4ccc(F)cc43)c[nH]c12 | < 4.30 | 4.55 | 4.80 | 4.96 | 4.58 | 5.07 | 4.57 | pIC50 [3]: 5.18; inhibition [4]: Active
16 | CCN(CC)CCNC(=O)c1ccc(/C=C2\C(=O)Nc3cccnc32)[nH]c1=O | < 4.30 | 4.90 | 4.60 | 4.93 | 4.52 | 5.09 | 4.48 | 
17 | CCc1cccc2c(/C=C3\C(=O)Nc4ncccc43)c[nH]c12 | 4.37 | 4.98 | 4.56 | 4.77 | < 4.30 | 4.87 | 4.43 | 
18 | Cc1[nH]c(/C=C2\C(=O)Nc3ncccc32)c(C)c1C(=O)N1CCN(CCO)CC1 | < 4.30 | < 4.30 | < 4.30 | < 4.30 | < 4.30 | < 4.30 | < 4.30 | 
19 | Cc1[nH]c(/C=C2\C(=O)Nc3cccnc32)c(C)c1C(=O)NCCN(C)C | < 4.30 | 4.69 | 4.62 | 4.78 | 4.33 | 4.91 | 4.34 | 
20 | Cc1[nH]c(/C=C2\C(=O)Nc3ccncc32)c(C)c1C(=O)N1CCN(C)CC1 | < 4.30 | < 4.30 | < 4.30 | < 4.30 | < 4.30 | < 4.30 | < 4.30 | 
21 | CCN(CC)CCNC(=O)c1ccc(/C=C2\C(=O)Nc3ccc(F)cc32)[nH]c1=O.Cl | < 4.30 | 5.30 | 4.86 | 5.21 | 4.68 | 5.64 | 4.64 | Activity (HCT-116 [5]): 45.4%; Activity (HCT-116 [6]): 42.6%; Activity (HCT-116 [7]): 28.63%; Activity (HCT-116 [8]): 18.27%; Activity (HCT-116 [9]): 42.45%; pIC50 [3]: 7.82; Activity (HCT-116 [10]): Dose-dependent effect; inhibition [4]: Active; Activity (HCT-116 [11]): Dose-dependent effect; Activity (HCT-116 [12]): 8.61%; Activity (HCT-116 [13]): 20.48%; Activity (HCT-116 [14]): 81.63%; Activity (HCT-116 [15]): 12.11%; Activity (HCT-116 [16]): 48.67%; Activity (HCT-116 [17]): 38.76%; Activity (HCT-116 [18]): 0.1%
22 | O=C1Nc2ccc(F)cc2/C1=C/c1ccc(C(=O)NCCN2CCOCC2)c(=O)[nH]1 | < 4.30 | 4.46 | 4.35 | 4.66 | 4.45 | 4.89 | 4.41 | 
23 | CN(C)CCNC(=O)c1ccc(/C=C2\C(=O)Nc3ccc(F)cc32)[nH]c1=O | < 4.30 | 4.77 | 4.71 | 4.90 | 4.60 | 5.28 | 4.61 | 
24 | O=C1Nc2cccnc2C1=Cc1c[nH]c2cc(F)ccc12 (mixture of isomers) | < 4.30 | < 4.30 | < 4.30 | < 4.30 | < 4.30 | < 4.30 | < 4.30 | 
25 | O=C1Nc2ccc(F)cc2/C1=C/c1ccc(C(=O)NCCN2CCCCC2)c(=O)[nH]1 | < 4.30 | 4.72 | 4.57 | 4.82 | 4.55 | 5.02 | 4.49 | 
26 | O=C1Nc2cccnc2C1=Cc1c[nH]c2ccc(F)cc12 (mixture of isomers) | < 4.30 | < 4.30 | < 4.30 | < 4.30 | < 4.30 | < 4.30 | < 4.30 | 
